Data from patent publication US9808434B2, “Compound for treating cancer and diabetes” (CITY OF HOPE, priority 2011, dated 2017).

Experiments:
[1] = tested on: PBT-017; assay: Glioma ATP viability assay, PBT-017; format: cell-based; details: 72 h
Method: (§1) Cells of each cell line (U251, U87, PBT-017, PBT018, PBT003 and PBT028) were treated with various concentrations (0˜100 μM) of COH-SR4 for 72 hours. Cell viabilities were determined by ATP viability assays. Data were represented as a ratio to vehicle (DMSO) control, and plotted as mean±SEM (n=12) obtained from 2˜3 experiments (FIG. 34A).
as §1, with “(U87, U251,” for “(U251, U87, PBT-017, PBT018,”, “PVT-017)” for “PBT028)”, “2-3” for “2˜3”, “34B).” for “34A).”
Cells of each cell line were treated with various concentrations (0˜100 μM) of COH-SR4 or various concentrations (0˜1000 μM) of TMZ for 72 hours. Cell viabilities were determined by ATP viability assays. Data were represented as a ratio to untreated cells as control, and plotted as mean±SEM (n=12) obtained from 2˜3 experiments (FIGS. 43A-B).

[2] = tested on: HAVSMC, NHDFs, melanocytes; assay: MTT assay, normal cells; format: cell-based, human; details: 24 h and 48 h
Method: (§2) Cell density measurements were performed using a hemocytometer to count reproductive cells resistant to staining with trypan blue. Approximately 20,000 cells were plated into each well of 96-well flat-bottomed micro-titer plates. After 12 h or 24 h incubation at 37° C., medium containing either COH-SR4 (ranging 0-200 μM) or elesclomol (ranging 0-20 μM) were added to the cells. After 24 h, 48 h or 96 h incubation, 20 μL of 5 mg/mL MTT were introduced to each well and incubated for 2 h. The plates were centrifuged and medium was decanted. Cells were subsequently dissolved in 100 μl DMSO with gentle shaking for 2 h at room temperature, followed by measurement of OD570 (91).

[3] = tested on: H358 cells; assay: MTT assay, H358; format: cell-based; details: Homo sapiens, NCI-H358, 48 h
Method: as §2
The effect of COH-SR4 was first examined in a NCI panel of cancer cell lines, the results of which indicated good activity of COH-SR4 towards lung cancer (FIG. 78A). […] Values are presented as mean±SD from two separate determinations with eight replicates each (n=16) (FIG. 78B). […] Standard colony-forming assay was performed and the colonies were counted using Innotech Alpha Imager HP. […] TUNEL assay was performed using Promega fluorescence detection kit and examined using Zeiss LSM 510 META laser-scanning fluorescence microscope with filters 520 and 620 nm. […]

[4] = tested on: AMPK; assay: AMPK activation in 3T3-L1 cells, Western blot; format: cell-based, mouse; details: 1 hour
Method: Activation of AMPK was associated with the phosphorylation of the α-subunit on Thr-172 of as assessed using phospho-specific antibodies (FIGS. 10A-B). AMPK activation also leads to the increased phosphorylation of the target protein acetyl-CoA carboxylase (ACC) (FIG. 10B).
Cells of each cell lines (Hela, HL-60, and 3T3-L1) were treated for 1 hour with a test compound (COH-SR4, COH-SR9, COH-SR16, or COH-SR18) at a concentration of 1 μM, 3 μM, or 5 μM, or AICAR (5-aminoimidazole-4-carboxamideriboside, an AMPK agonist used as positive control) at a concentration of 500 μM, or none of the above (the untreated cells as negative control). Total cell lysates from the untreated cells and the cells treated with a test compound or AICAR were analyzed by Western blot assay using specific antibodies against phospho-AMPK, phospho-ACC, total AMPK and total ACC.

[5] = tested on: H358 lung cancer; format: in vivo; details: day 60; 4 mg/kg b.w. oral alternate day; control 2.02±0.3 g
Method: For lung cancer studies, twelve 10-weeks-old mice were divided into two groups of 6 animals (treated with corn oil (vehicle), and COH-SR4 compound 4 mg/kg b.w.). All animals were injected with 2×10^6 H358 cells suspensions in 100 μL of PBS, subcutaneously into one flank of each mouse. At the same time, animals were randomized treatment groups as well as control groups. Treatment was started 10 days after the implantation to see palpable tumor growth. Treatment consisted of 0.1 mg of COH-SR4/m ice in 200 μL corn oil by oral gavage alternate day. Control groups were treated with 200 μL corn oil by oral gavage alternate day. Animals were examined daily for signs of tumor growth. Tumors were measured in two dimensions using calipers. Photographs of animals were taken at day 1, day 10, day 14, day 18, day 30, and day 60 after subcutaneous injection.
Hsd: Athymic nude nu/nu mice obtained from Harlan, Indianapolis, Ind. were used for the oral administration of COH-SR4 on lung cancer progression in in-vivo xenograft model. Twelve 10-weeks-old mice were divided into two groups of 6 animals (treated with corn oil (vehicle), and COH-SR4 4 mg/kg b.w.). […] Animals were examined daily for signs of tumor growth and body weights were recorded. […] Tumors were measured in two dimensions using calipers. […] The absorption of orally administered COH-SR4 in mice was assessed.

In the case of `O=C(Nc1cc(Cl)cc(Cl)c1)Nc1cc(Cl)cc(Cl)c1` [COH-SR4, 1,3-bis(3,5-dichlorophenyl) urea], the IC50 ([1]; Table 1) is reported as 2000 nM, the IC50 ([1]; Table 2) is reported as 2100 nM and the “cytotoxicity in normal cells” value [2] is reported as “did not cause any significant cytotoxicity”. For the same compound, the IC50 [3] was 2100 ± 200 nM, the AMPK activation [4] was “activated AMPK” and the tumor weight [5] was 0.77 ± 0.2 g.
